{"source": "ChEMBL document CHEMBL1914397", "about": "“Daedalols A-C, fungal-derived BACE1 inhibitors” (Bioorg Med Chem, 2011)", "target": "Beta-secretase 1 (Homo sapiens, UniProt P56817)", "sequence (P56817 whole entry, the tested form may be a part)": "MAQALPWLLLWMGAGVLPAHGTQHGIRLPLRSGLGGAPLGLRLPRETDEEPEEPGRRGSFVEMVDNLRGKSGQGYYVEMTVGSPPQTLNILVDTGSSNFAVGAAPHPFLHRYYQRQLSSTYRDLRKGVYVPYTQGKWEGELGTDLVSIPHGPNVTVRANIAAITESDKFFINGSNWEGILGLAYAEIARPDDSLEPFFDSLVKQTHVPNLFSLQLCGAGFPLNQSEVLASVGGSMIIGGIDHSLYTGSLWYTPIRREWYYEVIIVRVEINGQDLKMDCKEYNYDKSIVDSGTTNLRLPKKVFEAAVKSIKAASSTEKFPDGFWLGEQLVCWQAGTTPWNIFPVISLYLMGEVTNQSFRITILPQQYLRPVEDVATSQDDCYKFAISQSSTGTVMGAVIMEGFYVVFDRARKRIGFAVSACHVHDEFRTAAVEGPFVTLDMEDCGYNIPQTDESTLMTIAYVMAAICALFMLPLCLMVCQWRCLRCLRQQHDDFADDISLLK", "test": "Inhibition of BACE1-mediated amyloid precursor protein cleavage after 16 hrs by chemiluminescent enzyme-fragment complementation assay"}
{"smiles": "C[C@H](CC(=O)[C@@]1([C@H](C)C(=O)O)CO1)[C@H]1CC[C@@]2(C)C3=C(CC[C@]12C)[C@@]1(C)CC[C@@H](OC(=O)CC(=O)O)C(C)(C)[C@@H]1CC3", "note": "[DAEDALOL C]", "values": [{"measurement": "IC50", "result": 14.2, "unit": "µM"}]}
